Max binding and Survival data for 2 compounds are collected here from ChEMBL document CHEMBL1135817, “New templates for syntheses of ring-fused, C(10) beta-turn peptidomimetics leading to the first reported small-molecule mimic of neurotrophin-3” (2002).

Test [1] has as its target High affinity nerve growth factor receptor (Homo sapiens) (UniProt P04629). The experiment in a line: Binding of FITCanti-TrkA-Ab to human TrkA receptor transfected NIH3T3 cells (positive control). In kind it is cell-based.
In test [2] the target is NT-3 growth factor receptor (Mus musculus) (UniProt Q6VNS1). The experiment in a line: Binding of FITCanti-TrkC-Ab to TrkC receptor transfected NIH3T3 cells (positive control). In kind it is cell-based.
For test [3] the target is unchanged. Put plainly: Survival of TrkC receptor transfected NIH3T3 cells without NT-3 (negative control). It is filed as functional, cell-based.
Test [4] shares this target. The experiment in a line: Survival of TrkC receptor transfected NIH3T3 cells with suboptimal NT-3 (100 pM). It is filed as functional, cell-based.
For test [5] the target is unchanged. Put plainly: Survival of TrkC receptor transfected NIH3T3 cells with 2000 pM NT-3 (positive control). In kind it is functional, cell-based.
For test [6] the target is unchanged. Put plainly: Survival of TrkC receptor transfected NIH3T3 cells at o.4 uM without NT-3. It is filed as functional, cell-based.
Test [7] has the same target. The experiment in a line: Survival of TrkC receptor transfected NIH3T3 cells at o.4 uM with 100 pM NT-3. In kind it is functional, cell-based.
The target is the same in test [8]. Put plainly: Survival of TrkC receptor transfected NIH3T3 cells at 10 uM without NT-3. It is filed as functional, cell-based.
For test [9] the target is unchanged. The experiment in a line: Survival of TrkC receptor transfected NIH3T3 cells at 10 uM with 100 pM NT-3. In kind it is functional, cell-based.
For test [10] the target is unchanged. The experiment in a line: Survival of TrkC receptor transfected NIH3T3 cells at 2 uM without NT-3. In kind it is functional, cell-based.
For test [11] the target is unchanged. Put plainly: Survival of TrkC receptor transfected NIH3T3 cells at 2 uM with 100 pM NT-3. In kind it is functional, cell-based.
The target is the same in test [12]. The experiment in a line: Survival of TrkC receptor transfected NIH3T3 cells at 50 uM without NT-3. In kind it is functional, cell-based.
The target is the same in test [13]. Put plainly: Survival of TrkC receptor transfected NIH3T3 cells at 50 uM with 100 pM NT-3. In kind it is functional, cell-based.
The test system of test [14] is NIH3T3. The experiment in a line: Binding of irrelevant FITC-Ab to NIH3T3 cells (negative control). It is filed as functional, Mus musculus.
For test [15], the target named is High affinity nerve growth factor receptor (Homo sapiens) (UniProt P04629). The experiment in a line: Binding affinity for TrkA receptor transfected NIH3T3 cells at 20 uM without NGF. In kind it is cell-based.
In test [16] the target is NT-3 growth factor receptor (Mus musculus) (UniProt Q6VNS1). Put plainly: Binding affinity for TrkC receptor transfected cells at 20 uM with 2 nM NT-3.
Test [17] shares this target. The experiment in a line: Binding affinity for TrkC receptor transfected cells at 20 uM with 20 nM anti-TrkC-Ab.
For test [18] the target is unchanged. The experiment in a line: Binding affinity for TrkC receptor transfected cells at 20 uM without NT-3.
The subject of test [19] is NIH3T3. Put plainly: Binding affinity for NIH3T3 cells at 20 uM (negative control). It is filed as functional, Mus musculus.
The target of test [20] is High affinity nerve growth factor receptor (Homo sapiens) (UniProt P04629). The experiment in a line: Binding affinity for TrkA receptor transfected NIH3T3 cells at 20 uM with 2 nM NGF. It is filed as cell-based.

NT-3 growth factor receptor (Mus musculus), sequence (Q6VNS1 whole entry): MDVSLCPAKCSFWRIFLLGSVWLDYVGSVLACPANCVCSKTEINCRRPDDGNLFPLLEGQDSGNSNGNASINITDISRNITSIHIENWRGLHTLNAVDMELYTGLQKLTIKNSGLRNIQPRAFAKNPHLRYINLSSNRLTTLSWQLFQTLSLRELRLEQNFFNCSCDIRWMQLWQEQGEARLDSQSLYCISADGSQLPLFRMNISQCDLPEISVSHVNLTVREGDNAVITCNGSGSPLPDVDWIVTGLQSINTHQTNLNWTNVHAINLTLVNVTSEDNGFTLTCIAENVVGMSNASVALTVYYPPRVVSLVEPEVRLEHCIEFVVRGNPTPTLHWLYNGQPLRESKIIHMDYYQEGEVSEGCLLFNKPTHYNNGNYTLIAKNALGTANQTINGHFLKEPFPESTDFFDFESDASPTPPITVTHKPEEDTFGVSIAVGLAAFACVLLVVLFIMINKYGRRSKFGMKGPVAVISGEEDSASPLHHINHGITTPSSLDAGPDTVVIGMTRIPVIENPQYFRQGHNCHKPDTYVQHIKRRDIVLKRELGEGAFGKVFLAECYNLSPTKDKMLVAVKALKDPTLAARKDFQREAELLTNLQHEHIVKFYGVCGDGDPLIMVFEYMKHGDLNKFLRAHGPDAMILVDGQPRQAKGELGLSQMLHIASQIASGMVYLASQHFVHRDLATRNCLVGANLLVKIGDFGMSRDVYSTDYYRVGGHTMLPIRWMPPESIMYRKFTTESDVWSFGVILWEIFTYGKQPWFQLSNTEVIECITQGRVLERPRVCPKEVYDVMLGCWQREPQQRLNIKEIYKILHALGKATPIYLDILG
High affinity nerve growth factor receptor (Homo sapiens), sequence (P04629 33-796 limits assumed): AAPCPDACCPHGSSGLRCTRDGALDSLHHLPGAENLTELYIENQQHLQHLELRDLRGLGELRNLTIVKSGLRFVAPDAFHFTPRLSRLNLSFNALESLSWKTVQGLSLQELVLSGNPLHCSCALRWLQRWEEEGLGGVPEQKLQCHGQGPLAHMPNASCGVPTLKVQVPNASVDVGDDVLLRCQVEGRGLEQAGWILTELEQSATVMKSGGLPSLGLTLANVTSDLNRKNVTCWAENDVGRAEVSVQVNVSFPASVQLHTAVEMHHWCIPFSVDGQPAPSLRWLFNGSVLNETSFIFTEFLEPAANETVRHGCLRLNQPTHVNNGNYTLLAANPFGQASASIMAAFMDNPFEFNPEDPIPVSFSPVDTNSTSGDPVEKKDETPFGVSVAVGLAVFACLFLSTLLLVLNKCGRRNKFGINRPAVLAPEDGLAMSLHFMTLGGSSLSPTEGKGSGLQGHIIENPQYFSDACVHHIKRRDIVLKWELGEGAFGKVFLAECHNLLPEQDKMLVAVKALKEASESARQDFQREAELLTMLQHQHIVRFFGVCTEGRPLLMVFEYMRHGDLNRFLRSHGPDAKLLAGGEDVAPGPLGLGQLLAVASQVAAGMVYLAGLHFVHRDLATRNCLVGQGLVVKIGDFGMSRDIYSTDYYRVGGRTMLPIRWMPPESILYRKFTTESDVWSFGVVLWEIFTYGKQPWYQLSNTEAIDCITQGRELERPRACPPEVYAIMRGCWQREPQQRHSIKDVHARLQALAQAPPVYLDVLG

Turning to `NCCCC[C@@H]1NC(=O)c2cc([N+](=O)[O-])ccc2NCc2ccc(C(N)=O)cc2NC(=O)[C@H](CO)NC1=O`, the results for the Max binding (in [1]; in test [2]; in the test on NIH3T3 [14]) were 71%, 22% and 14%, respectively. Also, the Survival in [3] was 0%; in test [4], 26%; in test [5], 100%; in test [6], 0.2%; in [7] it was 32%; in [8], 0.4%. Also, the Survival turned out to be 38% in [9]; 0.1% in [10]; 33% in [11]; 0.2% in test [12]; 36% in test [13].

Regarding `NCCCC[C@@H]1NC(=O)c2cc(NC(=O)CC/N=C(S)/N=C3/C=CC(=C4c5ccc(O)cc5Oc5cc(O)ccc54)C(C(=O)O)=C3)ccc2NCc2ccc(C(N)=O)cc2NC(=O)[C@H](CO)NC1=O`, the Max binding in test [15] was 22%; in test [16], 42%; in [17], 40%; in test [18], 11%; in the test on NIH3T3 [19], 14%; in test [20] it was 9%.
